Assays:
[1] = Vasorelaxant activity against depolarization-induced basilar artery constriction in white rabbit at 10 uM; format: functional, Oryctolagus cuniculus; parameters: scale not given: the % may be the effect or the level left
[2] = Vasorelaxant activity against depolarization-induced basilar artery constriction in white rabbit; format: functional, tissue-based, Oryctolagus cuniculus

SMILES	Activity [1] [%]	EC50 [2] [nM]
C/C(=C\CCC1(C)OCCO1)CCC/C(C)=C/C(=O)CC(C)C	83.3	
CC(=O)CC/C=C(\C)CCC/C(C)=C/C#N	10.3	
C/C(=C\CC/C(C)=C/CCC1(C)OCCO1)CC#N	33.5	
CC(=O)CC/C=C(\C)CC/C=C(\C)CC#N	13.1	
C/C(=C\CCC1(C)OCCO1)CCC/C(C)=C/C(O)CC(C)C (stereo unspecified)	99.8	1410
CC(=O)CC/C=C(\C)CCC/C(C)=C/C(O)CC(C)C (stereo unspecified)	98.9	2380
C/C(=C\C#N)CCC/C(C)=C/CCC1(C)OCCO1	44.6	
CC(=O)CC/C=C(\C)CCC/C(C)=C/C=O	12.6	
C/C(=C\C=O)CCC/C(C)=C/CCC1(C)OCCO1	20.1	

Reference: ChEMBL document CHEMBL1177795, “Synthesis of two marine farnesylacetones that dilate the basilar arteries of rabbits” (Bioorg Med Chem Lett, 2010)
